Measurements taken from article PMC7544826 (Communications Biology, 2020).

Columns and labels:
[1] = molecular target: T1, Notum (Homo sapiens, UniProt Q6P988, C330S); assay: Thermal shift assay (SYPRO Orange) of Notum; settings: compound 500 µM; for Thermoflour melting curve fluorescence of Notum: Fig 2c
T1 sequence (Q6P988 81-451 C330S): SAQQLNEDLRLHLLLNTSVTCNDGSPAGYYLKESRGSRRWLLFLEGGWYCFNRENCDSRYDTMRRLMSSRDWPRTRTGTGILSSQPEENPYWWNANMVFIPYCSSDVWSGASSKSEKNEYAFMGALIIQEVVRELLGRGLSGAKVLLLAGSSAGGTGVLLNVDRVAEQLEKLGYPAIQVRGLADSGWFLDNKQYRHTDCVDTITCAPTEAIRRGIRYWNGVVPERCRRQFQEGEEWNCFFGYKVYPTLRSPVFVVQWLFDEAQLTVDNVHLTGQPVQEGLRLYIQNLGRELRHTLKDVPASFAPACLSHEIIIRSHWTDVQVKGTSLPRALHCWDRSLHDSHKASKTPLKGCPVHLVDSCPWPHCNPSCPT
Description: Reference wells, i.e. solutions without compounds were used to compare the melting temperature (Tm). The experiments were performed in triplicate.

[2] = molecular target: T1, Notum; assay: Notum activity assay with OPTS as substrate; type: biochemical; set-up: The human Notum enzyme core comprising amino acids S81–T451 with a C330S mutation; made in house; dialyzed conditioned medium used without purification; settings: result in words
Description: OPTS is a common lipase substrate with an octanoyl lipid linked to a fluorescent moiety. It is not a natural Notum substrate; however, it can be used to quantify the enzymatic activity of purified Notum protein[23],[25],[28]. […] The fluorescent lipase substrate OPTS was dissolved in water at a concentration of 20 µM. […] The inhibition curves were fitted with a one-site model with GraphPad Prism 8 software.

[3] = molecular target: T1, Notum; assay: SPR equilibrium binding to biotinylated Notum on streptavidin chip; set-up: The human Notum enzyme core comprising amino acids S81–T451 with a C330S mutation; made in house; dialyzed conditioned medium used without purification; settings: result in words
Description: The human Notum core sequence was cloned in a pHL-Avi3 vector[49] and co-transfected with the pDisplay_BirA-ER plasmid[50] into HEK293T cells with the media supplemented with 20 µM biotin. This procedure allows in vivo biotinylation to occur, and the dialyzed conditioned medium was directly used for SA sensor chip immobilization without protein purification. […] Approximately 2500 resonance units (RU) of the biotinylated Notum was coupled onto the chip. […] The response was plotted versus the concentration of the analytes and fitted by nonlinear regression to a one-site saturation binding model (GraphPad Prism 8).

Cn1c(=O)[nH]c2ncn(C)c2c1=O [paraxanthine, 1,7-dimethylxanthine]
Thermoflour melting curve fluorescence of Notum ([1]; Temperature 24.5): 1987.07 | Thermoflour melting curve fluorescence of Notum ([1]; Temperature 25.5): 1782.57 | Thermoflour melting curve fluorescence of Notum ([1]; Temperature 26.5): 1579.35 | Thermoflour melting curve fluorescence of Notum ([1]; Temperature 27.5): 1384.26 | Thermoflour melting curve fluorescence of Notum ([1]; Temperature 28.5): 1239.77 | Thermoflour melting curve fluorescence of Notum ([1]; Temperature 29.5): 1129.04 | Thermoflour melting curve fluorescence of Notum ([1]; Temperature 30.5): 1031.12 | Thermoflour melting curve fluorescence of Notum ([1]; Temperature 31.5): 918.053 | Thermoflour melting curve fluorescence of Notum ([1]; Temperature 32.5): 770.537 | Thermoflour melting curve fluorescence of Notum ([1]; Temperature 33.5): 609.721 | Thermoflour melting curve fluorescence of Notum ([1]; Temperature 34.5): 426.953 | Thermoflour melting curve fluorescence of Notum ([1]; Temperature 35.5): 213.386 | Thermoflour melting curve fluorescence of Notum ([1]; Temperature 36.5): -34.2239 | Thermoflour melting curve fluorescence of Notum ([1]; Temperature 37.5): -296.182 | Thermoflour melting curve fluorescence of Notum ([1]; Temperature 38.5): -499.812 | Thermoflour melting curve fluorescence of Notum ([1]; Temperature 39.5): -637.629 | Thermoflour melting curve fluorescence of Notum ([1]; Temperature 40.5): -751.582 | Thermoflour melting curve fluorescence of Notum ([1]; Temperature 41.5): -837.247 | Thermoflour melting curve fluorescence of Notum ([1]; Temperature 42.5): -891.039 | Thermoflour melting curve fluorescence of Notum ([1]; Temperature 43.5): -901.613 | Thermoflour melting curve fluorescence of Notum ([1]; Temperature 44.5): -863.856 | Thermoflour melting curve fluorescence of Notum ([1]; Temperature 45.5): -795.543 | Thermoflour melting curve fluorescence of Notum ([1]; Temperature 46.5): -693.454 | Thermoflour melting curve fluorescence of Notum ([1]; Temperature 47.5): -545.549 | Thermoflour melting curve fluorescence of Notum ([1]; Temperature 48.5): -352.113 | Thermoflour melting curve fluorescence of Notum ([1]; Temperature 49.5): -114.575 | Thermoflour melting curve fluorescence of Notum ([1]; Temperature 50.5): 165.368 | Thermoflour melting curve fluorescence of Notum ([1]; Temperature 51.5): 475.15 | Thermoflour melting curve fluorescence of Notum ([1]; Temperature 52.5): 801.618 | Thermoflour melting curve fluorescence of Notum ([1]; Temperature 53.5): 1178.09 | Thermoflour melting curve fluorescence of Notum ([1]; Temperature 54.5): 1624.42 | Thermoflour melting curve fluorescence of Notum ([1]; Temperature 55.5): 2146.78 | Thermoflour melting curve fluorescence of Notum ([1]; Temperature 56.5): 2764.33 | Thermoflour melting curve fluorescence of Notum ([1]; Temperature 57.5): 3495.42 | Thermoflour melting curve fluorescence of Notum ([1]; Temperature 58.5): 4462.48 | Thermoflour melting curve fluorescence of Notum ([1]; Temperature 59.5): 5756.59 | Thermoflour melting curve fluorescence of Notum ([1]; Temperature 60.5): 7495.13 | Thermoflour melting curve fluorescence of Notum ([1]; Temperature 61.5): 9729.04 | Thermoflour melting curve fluorescence of Notum ([1]; Temperature 62.5): 12262.8 | Thermoflour melting curve fluorescence of Notum ([1]; Temperature 63.5): 14775.9 | Thermoflour melting curve fluorescence of Notum ([1]; Temperature 64.5): 17022.5 | Thermoflour melting curve fluorescence of Notum ([1]; Temperature 65.5): 18955.6 | Thermoflour melting curve fluorescence of Notum ([1]; Temperature 66.5): 20556.8 | Thermoflour melting curve fluorescence of Notum ([1]; Temperature 67.5): 21849.9 | Thermoflour melting curve fluorescence of Notum ([1]; Temperature 68.5): 22932.3 | Thermoflour melting curve fluorescence of Notum ([1]; Temperature 69.5): 23847.9 | Thermoflour melting curve fluorescence of Notum ([1]; Temperature 70.5): 24631 | Thermoflour melting curve fluorescence of Notum ([1]; Temperature 71.5): 25359.6 | Thermoflour melting curve fluorescence of Notum ([1]; Temperature 72.5): 25975.5 | Thermoflour melting curve fluorescence of Notum ([1]; Temperature 73.5): 26515.7 | Thermoflour melting curve fluorescence of Notum ([1]; Temperature 74.5): 27075.8 | Thermoflour melting curve fluorescence of Notum ([1]; Temperature 75.5): 27622.8 | Thermoflour melting curve fluorescence of Notum ([1]; Temperature 76.5): 28157.3 | Thermoflour melting curve fluorescence of Notum ([1]; Temperature 77.5): 28616.3 | Thermoflour melting curve fluorescence of Notum ([1]; Temperature 78.5): 29028.5 | Thermoflour melting curve fluorescence of Notum ([1]; Temperature 79.5): 29470.8 | Thermoflour melting curve fluorescence of Notum ([1]; Temperature 80.5): 29930.8 | Thermoflour melting curve fluorescence of Notum ([1]; Temperature 81.5): 30385.9 | Thermoflour melting curve fluorescence of Notum ([1]; Temperature 82.5): 30819.6 | Thermoflour melting curve fluorescence of Notum ([1]; Temperature 83.5): 31270.2 | Thermoflour melting curve fluorescence of Notum ([1]; Temperature 84.5): 31691.8 | Thermoflour melting curve fluorescence of Notum ([1]; Temperature 85.5): 32102.2 | Thermoflour melting curve fluorescence of Notum ([1]; Temperature 86.5): 32523.2 | Thermoflour melting curve fluorescence of Notum ([1]; Temperature 87.5): 32949.1 | Thermoflour melting curve fluorescence of Notum ([1]; Temperature 88.5): 33332.7 | Thermoflour melting curve fluorescence of Notum ([1]; Temperature 89.5): 33682.6 | Thermoflour melting curve fluorescence of Notum ([1]; Temperature 90.5): 34084.7 | Thermoflour melting curve fluorescence of Notum ([1]; Temperature 91.5): 34496.3 | Thermoflour melting curve fluorescence of Notum ([1]; Temperature 92.5): 34921.9 | Thermoflour melting curve fluorescence of Notum ([1]; Temperature 93.5): 35339.5 | Thermoflour melting curve fluorescence of Notum ([1]; Temperature 94.5): 35764.6 | Thermoflour melting curve fluorescence of Notum ([1]; Temperature 95.5): 36159.7 | Thermoflour melting curve fluorescence of Notum ([1]; Temperature 96.5): 36500.9 | Thermoflour melting curve fluorescence of Notum ([1]; Temperature 97.5): 36857 | Effect on Tm of Notum [1]: little effect on the Tm | Melting temperature (Tm) of Notum ([1]; Notum without compounds Tm 63.6 °C): 63.5 °C | Notum inhibitory effect in OPTS enzyme assay [2]: could not detect obvious Notum inhibitory effects | Binding to Notum (SPR response) [3]: did not observe significant responses | Binding to Notum (SPR response) ([3]; listed as Paraxanthine): do not bind Notum
